# Measured values: patent US7034208B1, “Ahas inhibiting herbicide resistant wheat and method for selection thereof” (BASF Aktiengellschaft, priority 1991, dated 2006)
# Read-outs that look alike come from different tables or passages of the source.
# Experiments:
# [1] = test system: wheat selection FS4 and Fidel; assay: Field Trial II; type: in vivo; conditions: for effect on final plant height: resistant selection FS4, postemergent, six weeks after treatment
# [2] = test system: wheat seeds; assay: Seed soak screen (Example 1, Step 1, Experiments 1-4); type: in vivo; conditions: for seedling appearance versus controls: by three to four weeks; for herbicide concentration necessary for lethality: seed soak
# Experimental: The seeds are rinsed in sterile distilled water and then soaked in a herbicide concentration for a set period of time, as described below. Sets of twenty-five seeds are placed into 25 ml of the herbicide solution described below in a sterile 100×15 mm plastic petri dish and soaked for the designated time. The seeds are rinsed with water, dried with paper towels and planted (25 seeds/flat) approximately ½″ deep in 6×8 inch peat flats containing a moist, sterile, artificial soil, Metro Mix 350™ (Grace Company, Cambridge, Mass.). The treatments are evaluated at four weeks after treatment. The herbicides, rates and time periods evaluated are described below:
# Each treatment is replicated four times.
# Each treatment is replicated two times.
# The protocol is as described above except that 35 seeds are soaked per petri dish; 25 seeds are still planted per flat. This experiment is repeated twice.
# [3] = test system: AHAS (acetohydroxyacid synthase); assay: AHAS Enzyme Assay I and II (M4 Plants); type: biochemical, wheat; conditions: mutant selections; level lower than that for PURSUIT
# Experimental: Enzyme Extraction: For the extraction of AHAS, 10 grams of tissue are powdered in liquid nitrogen and then homogenized in 100 mM potassium phosphate buffer (pH 7.5) containing 10 mM pyruvate, 5 mM MgCl2, 5 uM EDTA, 100 uM FAD, 1 mM valine, 1 mM leucine, 10% glycerol, and 10 mM cysteine. The homogenate is filtered through a nylon cloth (53 uM mesh) and centrifuged at 25,000 g for 20 minutes. The supernatant fraction is brought to 50% saturation with respect to (NH4)2SO4 and allowed to stand for 20-30 minutes on ice. It is then centrifuged at 25,000 g for 20 minutes and the supernatant is discarded. The ammonium sulfate pellet is dissolved in 50 mM potassium phosphate buffer (pH 7.5) containing 1 mM EDTA and 100 mM NaCl and used for the assay procedures.
# AHAS Assay: AHAS activity is measured by estimation of the product, acetolactate, after conversion by decarboxylation in the presence of acid to acetoin. Standard reaction mixtures contain the enzyme in 50 mM potassium phosphate buffer (pH 7.0) containing 100 mM sodium pyruvate, 10 mM MgCl2, 1 mM thiamine pyrophosphate, and 10 uM FAD. This mixture is incubated at 37° C. for one hour after which time the reaction is stopped with the addition of […] to make a final concentration of 0.85% […] in the tube. The reaction product is allowed to decarboxylate at 60° C. for 15 minutes. The acetoin formed is determined by incubating with creatine (0.17%) and 1-napthol (1.7% in 4N NaOH) by the method of Westerfield (Westerfield, W. W., J. Biol. Chem., 161, 495-502 (1945)). Maximum color is observed by incubation at 60° C. for 15 minutes and then further incubation at room temperature for 15 minutes. The absorption of color complex is measured at 520 nm. Appropriate checks of direct acetoin formation during the enzyme assay are made. Each assay is run at least in duplicate and the experiments are repeated a minimum of two times.
# Herbicide Application: Two flats are planted with approximately 100 seeds of each wheat selection (FS1, FS2, and FS4) and Fidel in sterile Metro Mix 350. Ten days later, each flat is sprayed postemergence with 62.5 g/ha of PURSUIT™. The spray delivery rate is 400 L/ha with a belt speed of 8.2 sec/rev using nozzle #65015E. Tween 20™ is used as a surfactant at 0.25% v/v. The plants are harvested three days later and assayed for AHAS activity.
# Enzyme Extraction and AHAS Assay: As previously described.
# Herbicide Application: As described above (Enzyme Assay I) except that the spray delivery rate is 950 l/ha with a belt speed of 12.8 sec/rev using nozzle #40015E.
# [4] = test system: wheat selections FS2 and FS4 and Fidel; assay: Postemergence Herbicide Tolerance, upper limits; type: in vivo; conditions: four weeks after treatment
# Description: In this second greenhouse test, the upper limits of the mutant selections' resistance to postemergent applications of PURSUIT™ and Compound 2 are examined. M4 seed of two of the mutant selections, FS2 and FS4, and seed of Fidel are used in this experiment. Five seeds from each line are planted per pot in sterile Metro Mix 350™ in six inch Azalea pots. Immediately prior to herbicide treatment, these plants are thinned to three plants per pot. Three replicates are used per treatment (chemical & rate) for each line, and six replicates per wheat line are used as untreated controls. The plants are sprayed postemergence, 10 days after planting, with the following herbicides and rates (g/ha):
# The herbicides are applied as previously described. Plant height is measured immediately prior to spraying. Plant heights are also measured at two and four weeks after treatment, and shoot fresh weights measured at seven weeks after treatment.
# [5] = test system: mutant wheat selections FS1-FS4 and Fidel; type: in vivo
# Description: This greenhouse test examines the level and spectrum of herbicide resistance of the mutant selections at the whole plant level. […] These lines are bulked according to their parental lines: FS1, FS2, FS3 and FS4. Fidel (wild-type) is used is a control and for performance comparison purposes. Five seeds from each of these lines (including Fidel) are planted per pot in six inch Azalea pots and are later thinned to three plants per pot. Three replicates are used per treatment (chemical and rate) for each line, and six replicates per wheat line are used as untreated controls. Plants are sprayed postemergence, 10 days after planting, with the following herbicides and rates: […]
# [6] = test system: wheat seed of the susceptible cultivar Fidel; assay: Pre-emergence herbicide application, rate finding; type: in vivo; conditions: visual toxicity after three to four weeks
# Experimental: A series of experiments is performed to determine the appropriate herbicide rate for this pre-emergent spray treatment. Wheat seed of the susceptible cultivar Fidel is planted in Metro Mix 350™ in 6×8 inch peat flats at a rate of 100 seeds per flat. The flats are watered prior to herbicide treatment. Three flats are sprayed per treatment. The herbicides are applied with a laboratory belt sprayer at a rate of 950 liters per hectare (L/ha) at a belt speed of 12.8 sec/rev using sprayer nozzle #40015E (Teejet™ Spraying Systems). After three to four weeks, the treatments are evaluated by visual observation for toxicity to the wheat seeds/seedlings.
# [7] = test system: wheat variety Fidel and resistant selections FS2 and FS4; assay: Preemergence Herbicide Tolerance; type: in vivo; conditions: pre-emergence application; plant growth after four weeks; versus Fidel
# [8] = test system: mutant wheat selection FS2 and Fidel; assay: M3-M4 Wheat Herbicide Resistance Spectrum; type: in vivo; conditions: FS2 versus Fidel; postemergence
# Description: In this experiment, the tolerance of imidazolinone-resistant wheat to three sulfonylurea herbicides (BEACON™, CLASSIC™ and OUST™ (BEACON™ is a registered trademark of Ciba-Geigy and is 2-[4,6-bis-(difluoro-methoxy)-pyrimidin-2-ylcarbamoylsulfamoyl]benzoic acid; CLASSIC™ is a registered trademark of E.I. du Pont de Nemours and Company and is the ethyl ester of o-[[(4-chloro-6-methoxy-2-pyrimidinyl)-carbamoyl]-sulfamoyl]-benzoic acid), a sulfamoylurea herbicide (Compound 3), a sulfonylcarboxamide (Compound 1), and an imidazolinone herbicide (Compound 7, which is 3-(4-isopropyl-4-methyl-5-oxo-2-imidazolin-2-yl)-2-methyl-crotonic acid), is examined to look for cross-tolerance to AHAS-inhibiting herbicides other than the imidazolinones. […] Each treatment consists of three replicates. In addition, there are six replicates each of FS2 and Fidel which are used as untreated controls. Plants are sprayed postemergence, 7 days after planting, with the following herbicides and rates:
# The herbicides are applied as previously described. Plants are rated at two, three and four weeks after treatment with herbicide.
# [9] = test system: mutant wheat selection FS2 and Fidel; conditions: FS2 versus Fidel; postemergence
# Description: In a second experiment, the mutant wheat selection, FS2, from bulked M3-M4 seed, and Fidel seed are planted in 6″ Azalea pots in sterile Metro Mix 350™. Three seeds are planted per pot initially; these are subsequently thinned to two plants. There are three replicates of each treatment. In addition, the untreated controls consist of 15 replicates each of Fidel and FS2. Plants are sprayed postemergence, 12 days after planting, with the following herbicides and rates: […]
# [10] = mutant wheat FS1-FS4, postemergence, plant growth four weeks after treatment
compound,measurement,setting,value
"Cc1cnc(C2=NC(C)(C(C)C)C(=O)N2)c(C(=O)O)c1 (centres unmarked) [CADRE, 2-(4-isopropyl-4-methyl-5-oxo-2-imidazolin-2-yl)-5-methylnicotinic acid]",effect on final plant height,[1],no effect
"CC(C)C1(C)N=C(c2nc3ccccc3cc2C(=O)O)NC1=O (centres unmarked) [SCEPTER, 2-(4-isopropyl-4-methyl-5-oxo-2-imidazolin-2-yl)-3-quinolinecarboxylic acid]",seedling appearance versus controls,[2]; seed soak 500 uM for 48 hours,slightly shorter than controls
same,seedling appearance versus controls,[2]; seed soak 1-100 uM for 48 hours,indistinguishable from controls
same,prevention of escapes (false positives),"[2]; seed soak maximum 1000 uM for 48 hours, Experiment 2",still not high enough to prevent “escapes”
same,resistance of AHAS activity to inhibition,[3],Some resistance
"COCc1cnc(C2=NC(C)(C(C)C)C(=O)N2)c(C(=O)O)c1 (centres unmarked) [Compound 2, 2-(4-isopropyl-4-methyl-5-oxo-2-imidazolin-2-yl)-5-(methoxymethyl)-nicotinic acid]",rates up to which FS2 and FS4 plant heights equal the untreated controls,[4],25-50 g/ha
same,effect on final plant height,[1],no effect
same,rate to which the mutant wheat is resistant,[5]; [10],more than 80 g/ha
same,increased tolerance of mutant wheat,"[5]; mutant wheat FS1-FS4 versus Fidel, postemergence, four weeks after treatment",~16 fold
"CC(C)C1(C)N=C(c2ncccc2C(=O)O)NC1=O (centres unmarked) [ARSENAL, 2-(4-isopropyl-4-methyl-5-oxo-2-imidazolin-2-yl)-nicotinic acid]","most effective rate, pre-emergent spray",[6],40-50 g/ha
same,effect on seed germination and seedling growth,"[2]; seed soak 1-500 uM for 48 hours, Experiment 1",inhibits seed germination and seedling growth with increasing concentration
same,seedling growth,[2]; seed soak 100 and 500 uM for 48 hours,totally inhibit seedling growth
same,herbicide concentration necessary for lethality,[2]; exposure greater than 72 hours,50 µM
same,herbicide concentration necessary for lethality,[2]; length of exposure less than 72 hours,75 µM
same,increased tolerance of FS2 and FS4,[7],approximately 8 fold
same,rate to which the mutant wheat is resistant,[5]; [10],more than 48 g/ha
"COC(OC)c1cnc(C2=NC(C)(C(C)C)C(=O)N2)c(C(=O)O)c1 (centres unmarked) [Compound 8, 5-formyl-2-(4-isopropyl-4-methyl-5-oxo-2-imidazolin-2-yl)-nicotinic acid, 5-(dimethylacetal)]",effect on final plant height,[1],no effect
"C/C(C(=O)O)=C(\C)C1=NC(C)(C(C)C)C(=O)N1 (centres unmarked) [Compound 7, 3-(4-isopropyl-4-methyl-5-oxo-2-imidazolin-2-yl)-2-methyl-crotonic acid]",resistance,[8],greater than 10 fold
"COC(=O)c1ccccc1S(=O)(=O)NC(=O)Nc1nc(C)cc(C)n1 [OUST, methyl ester of o-[[3-(4,6-dimethylpyrimidin-2-yl)ureido]sulfonyl]-benzoic acid]",resistance of AHAS activity to inhibition,[3],Some resistance
same,increased tolerance of the resistant wheat,[9],2-4 fold
same,increased tolerance of mutant wheat,[5]; in vivo,~2 fold
same,rate to which the mutant wheat is resistant,[5]; in vivo,more than 5 g/ha
"COc1cc(OC)nc(NC(=O)NS(=O)(=O)c2ncccc2C(=O)N(C)C)n1 [ACCENT, 1-(4,6-dimethoxypyrimidin-2-yl)-3-(3-dimethylcarbamoyl-2-pyridylsulfonyl)urea]",cross resistance,"[1]; FS4, after three weeks",no cross resistance
same,tolerance of the resistant wheat,"[1]; FS4, postemergent 20 and 40 g/ha",little or no tolerance
same,grain yield,"[1]; both the resistant and susceptible Fidel, yields 10 weeks after treatment",little or no grain yield
"CC(=O)NC(C)(C(=O)NS(=O)(=O)c1ccc(Cl)cc1)C(C)C (centres unmarked) [Compound 1, 2-acetamido-N-[(p-chlorophenyl)sulfonyl]-2,3-dimethyl-butyramide]",inhibitory effect on seed germination or seedling growth,"[2]; seed soak 500-2000 uM for 48, 72 or 96 hours",does not have an inhibitory effect on either seed germination or seedling growth
